From paper PMC5458052 (Nature Communications, 2017)
“And” between values parts separate entries of the source, which are not always exact repeats. Equal values may be shown once. “Also recorded” adds a separate entry of the source. Read-outs that look alike come from different tables or passages of the source.

Columns and labels:
P. falciparum 3D7 = assay: In vitro antimalarial activity, drug sensitivity testing (3D7); format: cell-based; conditions: Plasmodium falciparum
P. berghei = test system: P. berghei; set-up: species or system Plasmodium berghei
[1] = test system: P. falciparum strains (sensitive and resistant); assay: microbe, parasite or virus in culture; format: cell-based; conditions: Plasmodium falciparum
[2] = test system: P. falciparum clinical field isolates; assay: microbe, parasite or virus in culture; format: cell-based; conditions: Plasmodium falciparum, read-out: Median IC50
[3] = test system: P. vivax clinical field isolates; assay: microbe, parasite or virus in culture; format: cell-based; conditions: Plasmodium vivax, read-out: Median IC50
[4] = test system: P. falciparum lab lines FC27 and K1; assay: microbe, parasite or virus in culture; format: cell-based; conditions: Plasmodium falciparum, median of 3 independent experiments
[5] = test system: P. falciparum K13 wild-type and mutant lines (Cam3.II, V1/S); assay: microbe, parasite or virus in culture; format: cell-based, Plasmodium falciparum; conditions: read-out: IC50 Mean
[6] = test system: P. falciparum strain 3D7^0087/N9; assay: Humanized SCID mouse model of P. falciparum; format: in vivo, Plasmodium falciparum
[7] = Metabolic stability and metabolite profile in rat liver microsomes; format: in vitro ADME
[8] = Metabolic stability and metabolite profile in mouse liver microsomes; format: in vitro ADME
[9] = Metabolic stability in dog liver microsomes; format: in vitro ADME; conditions: substrate 1 µM
Sigma 1 receptors = target: T1, Sigma 1 receptors (Homo sapiens, UniProt Q99720); assay: CEREP radioligand binding screen, Sigma 1
T1 construct: CEREP

Sigma 2 receptors = target: T2, Sigma 2 receptors (Homo sapiens, UniProt Q5BJF2); assay: CEREP radioligand binding screen, Sigma 2
T2 construct: CEREP

[10] = target: T3, cardiac IKr (hERG) channel (Homo sapiens, UniProt Q12809); assay: hERG electrophysiology assay (IonWorks HT, CHO cells); format: cell-based
T3 construct: expressed in transfected cells; host or cells: CHO cells

Cav1.2 channel = Cav1.2 channel (Homo sapiens, UniProt Q13936); assay: Cav1.2 electrophysiology assay (IonWorks HT, CHO cells); format: cell-based; conditions: at >100 μM
Nav1.5 channel = Nav1.5 channel (Homo sapiens, UniProt Q14524); assay: Nav1.5 electrophysiology assay (IonWorks HT, CHO cells); format: cell-based; conditions: at >100 μM
Mouse micronucleus test = conditions: in vivo
CYP2C19 = CYP2C19 (Homo sapiens, UniProt P33261); assay: Cytochrome P450 inhibition CYP2C19; format: in vitro ADME
[11] = Single rising oral dose MTD study in rats; conditions: both sexes, Sprague-Dawley, rat, in vivo; single oral administration; read-out: maximum-tolerated dose (MTD)
[12] = In vitro intrinsic clearance, human liver microsomes (Chem Partners); format: in vitro ADME; conditions: human (H) liver microsomes
[13] = In vitro intrinsic clearance, rat liver microsomes (Chem Partners); format: in vitro ADME; conditions: rat (R) liver microsomes
[14] = test system: African variant G6PD deficient human red blood cells (huRBC); conditions: 7 days post-treatment; E209 up to 50 mg kg^−1 day^−1 for 3 days; PQ 25 mg/kg/day for 3 days
[15] = rat, in vivo
in vivo = conditions: Sprague-Dawley, rat; for AUC(0-t) / Cmax: po
in vitro = conditions: human, microsomes
[16] = test system: major human CYP450s (all isoforms together); assay: in vitro
CYP3A4 = CYP3A4 (Homo sapiens, UniProt P08684); assay: biochemical
[17] = Rat blood stability in vitro; conditions: male, Sprague Dawley, freshly collected whole blood
[18] = Rat PK, compartmental analysis
CYP1A2 = CYP1A2 (Homo sapiens, UniProt P05177); assay: Cytochrome P450 inhibition CYP1A2
CYP2C9 = CYP2C9 (Homo sapiens, UniProt P11712); assay: Cytochrome P450 inhibition CYP2C9
[19] = Rat PK iv 1 mg/kg (Chem Partners); conditions: in vivo
[20] = Metabolic stability and metabolite profile in human liver microsomes; conditions: for Microsome-Predicted EH: human liver microsomes

T2 sequence (Q5BJF2 whole entry): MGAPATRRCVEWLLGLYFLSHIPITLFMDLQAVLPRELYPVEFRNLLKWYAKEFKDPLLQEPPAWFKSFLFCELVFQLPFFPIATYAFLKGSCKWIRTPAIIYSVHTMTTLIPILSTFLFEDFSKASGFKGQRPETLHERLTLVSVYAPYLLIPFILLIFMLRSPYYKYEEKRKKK
CYP2C19, sequence (P33261 whole entry): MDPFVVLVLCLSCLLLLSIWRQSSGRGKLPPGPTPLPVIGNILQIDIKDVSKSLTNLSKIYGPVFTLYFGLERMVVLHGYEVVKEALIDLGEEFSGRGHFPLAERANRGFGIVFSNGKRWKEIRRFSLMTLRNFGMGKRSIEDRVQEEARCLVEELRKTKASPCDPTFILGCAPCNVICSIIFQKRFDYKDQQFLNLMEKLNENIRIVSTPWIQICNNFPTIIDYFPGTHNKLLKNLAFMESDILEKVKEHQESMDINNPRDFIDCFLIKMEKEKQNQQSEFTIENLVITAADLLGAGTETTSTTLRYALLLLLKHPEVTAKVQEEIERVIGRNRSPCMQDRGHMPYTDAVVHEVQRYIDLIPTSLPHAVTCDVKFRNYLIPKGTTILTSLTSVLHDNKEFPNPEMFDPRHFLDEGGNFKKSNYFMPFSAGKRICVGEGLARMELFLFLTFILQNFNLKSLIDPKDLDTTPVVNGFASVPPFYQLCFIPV
T1 sequence (Q99720 whole entry): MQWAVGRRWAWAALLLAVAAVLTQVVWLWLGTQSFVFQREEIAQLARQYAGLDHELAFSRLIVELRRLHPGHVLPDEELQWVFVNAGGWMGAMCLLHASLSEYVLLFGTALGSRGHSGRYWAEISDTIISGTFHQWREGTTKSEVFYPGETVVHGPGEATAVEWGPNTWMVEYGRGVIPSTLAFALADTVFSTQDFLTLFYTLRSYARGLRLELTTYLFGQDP
CYP2C9, sequence (P11712 whole entry): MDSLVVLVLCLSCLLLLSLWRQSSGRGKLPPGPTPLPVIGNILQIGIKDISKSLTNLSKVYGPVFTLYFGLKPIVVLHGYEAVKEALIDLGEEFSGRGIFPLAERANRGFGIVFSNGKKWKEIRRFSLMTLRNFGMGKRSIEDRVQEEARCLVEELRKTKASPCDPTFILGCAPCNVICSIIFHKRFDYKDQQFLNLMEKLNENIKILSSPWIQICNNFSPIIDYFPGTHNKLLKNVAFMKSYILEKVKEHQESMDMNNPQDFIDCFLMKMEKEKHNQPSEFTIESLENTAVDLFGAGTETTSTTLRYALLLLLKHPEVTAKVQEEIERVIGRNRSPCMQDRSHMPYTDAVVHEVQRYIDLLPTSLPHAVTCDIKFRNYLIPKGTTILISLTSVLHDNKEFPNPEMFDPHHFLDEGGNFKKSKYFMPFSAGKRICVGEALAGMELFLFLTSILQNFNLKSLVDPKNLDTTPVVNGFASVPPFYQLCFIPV
CYP3A4, sequence (P08684 whole entry): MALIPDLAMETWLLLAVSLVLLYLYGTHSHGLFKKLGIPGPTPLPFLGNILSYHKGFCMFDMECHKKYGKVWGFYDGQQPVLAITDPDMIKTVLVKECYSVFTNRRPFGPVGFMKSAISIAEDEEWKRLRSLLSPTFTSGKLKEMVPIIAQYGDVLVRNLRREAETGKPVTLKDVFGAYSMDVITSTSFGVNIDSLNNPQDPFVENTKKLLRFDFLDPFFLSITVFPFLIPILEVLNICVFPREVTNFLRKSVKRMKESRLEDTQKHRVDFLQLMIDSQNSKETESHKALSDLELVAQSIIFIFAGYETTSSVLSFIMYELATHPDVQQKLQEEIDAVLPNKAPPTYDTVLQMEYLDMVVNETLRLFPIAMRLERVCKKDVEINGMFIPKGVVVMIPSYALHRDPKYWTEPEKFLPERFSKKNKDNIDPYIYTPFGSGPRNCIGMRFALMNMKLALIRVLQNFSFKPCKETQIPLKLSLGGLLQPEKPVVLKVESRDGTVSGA
T3 sequence (Q12809 whole entry): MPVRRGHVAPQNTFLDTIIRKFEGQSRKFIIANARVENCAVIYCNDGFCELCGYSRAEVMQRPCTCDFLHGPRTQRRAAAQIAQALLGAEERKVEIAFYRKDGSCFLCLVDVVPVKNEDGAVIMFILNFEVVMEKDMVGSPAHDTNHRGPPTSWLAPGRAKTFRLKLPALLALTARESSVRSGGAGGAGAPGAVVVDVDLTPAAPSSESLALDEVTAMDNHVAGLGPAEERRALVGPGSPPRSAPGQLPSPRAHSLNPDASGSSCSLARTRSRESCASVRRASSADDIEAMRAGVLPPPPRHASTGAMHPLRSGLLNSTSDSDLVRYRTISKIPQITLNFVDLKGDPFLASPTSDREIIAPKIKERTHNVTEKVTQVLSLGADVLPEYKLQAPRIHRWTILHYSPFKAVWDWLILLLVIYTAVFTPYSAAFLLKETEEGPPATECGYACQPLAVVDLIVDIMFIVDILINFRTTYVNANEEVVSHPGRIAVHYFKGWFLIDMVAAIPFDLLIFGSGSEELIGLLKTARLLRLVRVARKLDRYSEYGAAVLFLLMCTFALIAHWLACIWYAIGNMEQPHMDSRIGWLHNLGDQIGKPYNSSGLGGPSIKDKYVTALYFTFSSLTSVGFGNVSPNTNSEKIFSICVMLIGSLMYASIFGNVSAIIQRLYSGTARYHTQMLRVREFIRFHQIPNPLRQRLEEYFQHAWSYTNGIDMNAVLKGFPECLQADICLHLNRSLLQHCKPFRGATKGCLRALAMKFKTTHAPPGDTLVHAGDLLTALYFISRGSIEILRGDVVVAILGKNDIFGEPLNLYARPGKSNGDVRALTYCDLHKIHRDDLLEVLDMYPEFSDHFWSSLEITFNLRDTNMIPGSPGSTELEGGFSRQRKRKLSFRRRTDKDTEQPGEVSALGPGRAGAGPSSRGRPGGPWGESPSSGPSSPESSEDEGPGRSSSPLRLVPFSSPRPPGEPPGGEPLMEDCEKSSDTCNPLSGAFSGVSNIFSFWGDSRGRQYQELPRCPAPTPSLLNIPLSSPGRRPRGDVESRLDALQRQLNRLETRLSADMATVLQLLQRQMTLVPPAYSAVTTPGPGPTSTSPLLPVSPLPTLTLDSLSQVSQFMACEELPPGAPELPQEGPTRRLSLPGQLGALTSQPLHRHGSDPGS
Nav1.5 channel, sequence (Q14524 whole entry): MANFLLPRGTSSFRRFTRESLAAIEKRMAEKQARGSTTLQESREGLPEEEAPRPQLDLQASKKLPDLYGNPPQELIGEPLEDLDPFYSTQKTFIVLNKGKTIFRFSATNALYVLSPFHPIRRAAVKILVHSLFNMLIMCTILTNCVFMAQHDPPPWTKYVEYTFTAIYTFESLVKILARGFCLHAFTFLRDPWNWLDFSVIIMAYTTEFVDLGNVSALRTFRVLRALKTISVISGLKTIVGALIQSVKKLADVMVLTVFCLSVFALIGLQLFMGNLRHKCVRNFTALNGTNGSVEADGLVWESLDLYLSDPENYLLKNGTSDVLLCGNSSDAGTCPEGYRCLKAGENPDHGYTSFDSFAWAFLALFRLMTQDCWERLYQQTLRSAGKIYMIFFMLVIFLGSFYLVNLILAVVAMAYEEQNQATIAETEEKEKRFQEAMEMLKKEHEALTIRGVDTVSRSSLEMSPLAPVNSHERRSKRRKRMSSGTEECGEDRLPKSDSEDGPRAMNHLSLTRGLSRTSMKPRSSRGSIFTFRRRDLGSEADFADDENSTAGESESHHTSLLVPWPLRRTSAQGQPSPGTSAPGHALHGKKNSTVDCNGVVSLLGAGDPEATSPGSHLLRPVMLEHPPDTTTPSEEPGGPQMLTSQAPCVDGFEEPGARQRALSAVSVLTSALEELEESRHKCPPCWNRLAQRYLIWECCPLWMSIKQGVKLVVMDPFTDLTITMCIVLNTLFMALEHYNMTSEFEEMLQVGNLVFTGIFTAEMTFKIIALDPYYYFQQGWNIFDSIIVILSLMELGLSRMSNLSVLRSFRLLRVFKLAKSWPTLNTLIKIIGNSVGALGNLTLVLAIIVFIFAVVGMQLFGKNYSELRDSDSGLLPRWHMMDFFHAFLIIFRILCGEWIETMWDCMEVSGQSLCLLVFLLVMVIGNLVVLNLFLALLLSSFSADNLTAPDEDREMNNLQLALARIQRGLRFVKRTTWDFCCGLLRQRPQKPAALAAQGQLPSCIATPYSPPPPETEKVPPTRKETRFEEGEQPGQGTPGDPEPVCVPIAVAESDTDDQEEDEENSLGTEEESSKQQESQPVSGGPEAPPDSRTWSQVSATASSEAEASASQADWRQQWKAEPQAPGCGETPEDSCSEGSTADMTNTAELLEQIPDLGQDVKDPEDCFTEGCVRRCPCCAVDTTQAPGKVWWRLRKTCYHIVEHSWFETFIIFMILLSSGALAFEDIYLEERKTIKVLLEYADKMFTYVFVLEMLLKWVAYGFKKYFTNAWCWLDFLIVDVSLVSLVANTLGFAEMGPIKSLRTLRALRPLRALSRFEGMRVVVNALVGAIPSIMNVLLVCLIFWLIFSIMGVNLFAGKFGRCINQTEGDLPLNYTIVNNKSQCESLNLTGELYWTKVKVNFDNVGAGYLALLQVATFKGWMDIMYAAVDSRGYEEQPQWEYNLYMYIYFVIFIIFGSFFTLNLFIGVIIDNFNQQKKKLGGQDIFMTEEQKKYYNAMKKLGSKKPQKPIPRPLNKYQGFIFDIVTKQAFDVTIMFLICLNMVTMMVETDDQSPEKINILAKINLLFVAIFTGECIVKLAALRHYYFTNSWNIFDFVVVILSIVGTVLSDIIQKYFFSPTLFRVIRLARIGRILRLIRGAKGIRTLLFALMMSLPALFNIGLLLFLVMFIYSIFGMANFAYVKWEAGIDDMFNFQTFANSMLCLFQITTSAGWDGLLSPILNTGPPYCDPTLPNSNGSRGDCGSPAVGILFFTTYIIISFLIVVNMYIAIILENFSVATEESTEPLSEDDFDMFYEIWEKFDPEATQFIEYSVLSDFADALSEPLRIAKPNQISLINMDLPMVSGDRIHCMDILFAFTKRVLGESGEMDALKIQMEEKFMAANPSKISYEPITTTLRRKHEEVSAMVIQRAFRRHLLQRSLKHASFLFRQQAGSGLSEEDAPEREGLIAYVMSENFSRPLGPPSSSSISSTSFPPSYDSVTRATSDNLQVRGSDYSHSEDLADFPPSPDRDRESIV

Question: For `FC1CCN(CCOc2ccc(C3CCC4(CC3)OOC3(OO4)C4CC5CC(C4)CC3C5)cc2)CC1` (stereo not shown) [Compound E209], which IC50 (P. falciparum 3D7) is on record?
Answer: 5.1 ± 0.81 nM

Question: What about the “In vivo (Pb) MSD (days) at 1 x 30 mg/kg” value (P. berghei) of the same compound?
Answer: 26.3 days and 25.0 (15, 30, 30) (2 cures) days

Question: And the cure rate (P. berghei; in vivo)?
Answer: 66%

Question: What about the IC50 ([1]; DD2, strain Dd2 (chloroquine resistant), mean ± SD n=3) of the same compound?
Answer: 7.7 ± 1.5 nM

Question: What about the IC50 ([1]; HB3, strain HB3 (chloroquine sensitive), mean ± SD n=3) of the same compound?
Answer: 4.2 ± 0.8 nM

Question: What about the IC50 ([1]; NF54, strain NF54 (chloroquine sensitive), mean ± SD n=3) of the same compound?
Answer: 5.2 ± 1 nM

Question: What about the IC50 ([1]; TM90C2B, strain TM90C2B (chloroquine resistant), mean ± SD n=3) of the same compound?
Answer: 7.3 ± 1.4 nM

Question: And the IC50 ([1]; read-out: mean IC50 range, panel of 10 sensitive and multidrug-resistant P. falciparum isolates)?
Answer: 2.9 to 14 nM

Question: And the IC50 ([1]; strain 7G8 (chloroquine resistant), mean ± SD n=3)?
Answer: 2.9 ± 0.6 nM

Question: What about the IC50 ([1]; strain D6 (chloroquine sensitive), mean ± SD n=3) of the same compound?
Answer: 8.5 ± 1.6 nM

Question: And the IC50 ([1]; strain FCB (chloroquine resistant), mean ± SD n=3)?
Answer: 14 ± 2.7 nM

Question: What about the IC50 ([1]; strain K1 (chloroquine resistant), mean ± SD n=3) of the same compound?
Answer: 4.2 ± 0.8 nM

Question: What about the IC50 ([1]; strain V1/S (chloroquine resistant), mean ± SD n=3) of the same compound?
Answer: 4.2 ± 0.8 nM

Question: What about the IC50 [2] of the same compound?
Answer: 15.7 nM

Question: What about the IC50 [3] of the same compound?
Answer: 10.5 nM

Question: And the IC50 ([4]; K1, FC27 (CQ S) lab line)?
Answer: 20.7 nM

Question: And the IC50 ([4]; K1, K1 (CQ R) lab line)?
Answer: 31.8 nM

Question: And the IC50 ([5]; Plasmodium falciparum, 72 h)?
Answer: 8.71 nM

Question: And the IC50 [5]?
Answer: 7.6 nM and 7.51 nM and 8.46 nM and 7.76 nM and 7.81 nM

Question: And the “AUC ED90” value ([6]; single oral dose)?
Answer: 1.2 µg·h/mL

Question: What about the parasite clearance ([6]; single oral dose 30 mg kg^−1) of the same compound?
Answer: Complete parasite clearance; also recorded: maximum parasite clearance

Question: And the ED90 ([6]; single oral dose, calculated)?
Answer: 11.6 mg/kg

Question: What about the “% Substrate Consumed” value ([7]; rat liver microsomes with NADPH, 60 minutes) of the same compound?
Answer: 54%

Question: And the “Microsome-Predicted EH” value ([7]; rat liver microsomes, substrate 1 µM)?
Answer: 0.48

Question: And the half-life at 1 µM ([7]; rat liver microsomes, substrate 1 µM, read-out: Degradation half-life)?
Answer: 0.8 h

Question: And the microsomal CLint at 1 µM ([7]; rat liver microsomes, substrate 1 µM, read-out: In vitro CLint)?
Answer: 36 µL/min/mg

Question: And the “Microsome-Predicted EH” value ([7]; rat liver microsomes, substrate 5 µM)?
Answer: 0.45

Question: And the half-life at 5 µM ([7]; rat liver microsomes, substrate 5 µM, read-out: Degradation half-life)?
Answer: 0.9 h

Question: And the microsomal CLint at 5 µM ([7]; rat liver microsomes, substrate 5 µM, read-out: In vitro CLint)?
Answer: 32 µL/min/mg

Question: What about the “% Substrate Consumed” value ([8]; mouse liver microsomes with NADPH, 60 minutes) of the same compound?
Answer: 44%

Question: And the “Microsome-Predicted EH” value ([8]; mouse liver microsomes, substrate 1 µM)?
Answer: 0.22

Question: What about the half-life at 1 µM ([8]; mouse liver microsomes, substrate 1 µM, read-out: Degradation half-life) of the same compound?
Answer: 2.2 h

Question: What about the microsomal CLint at 1 µM ([8]; mouse liver microsomes, substrate 1 µM, read-out: In vitro CLint) of the same compound?
Answer: 13 µL/min/mg

Question: What about the “Microsome-Predicted EH” value ([8]; mouse liver microsomes, substrate 5 µM) of the same compound?
Answer: 0.25

Question: And the half-life at 5 µM ([8]; mouse liver microsomes, substrate 5 µM, read-out: Degradation half-life)?
Answer: 2.48 h

Question: What about the microsomal CLint at 5 µM ([8]; mouse liver microsomes, substrate 5 µM, read-out: In vitro CLint) of the same compound?
Answer: 17 µL/min/mg

Question: And the “Microsome-Predicted EH” value ([9]; n=1)?
Answer: 0.38

Question: What about the half-life at 1 µM ([9]; n=1, read-out: Degradation half-life) of the same compound?
Answer: 2.88 h

Question: And the microsomal CLint at 1 µM ([9]; n=1, read-out: In vitro CLint)?
Answer: 10 µL/min/mg

Question: And the IC50 (Sigma 1 receptors)?
Answer: ~200 nM

Question: And the IC50 (Sigma 2 receptors)?
Answer: ~200 nM

Question: And the IC50 [10]?
Answer: > 3500 nM

Question: And the inhibitory activity (Cav1.2 channel)?
Answer: no inhibitory activity

Question: And the inhibitory activity (Nav1.5 channel)?
Answer: no inhibitory activity

Question: And the “mouse micronucleus test result” value (Mouse micronucleus test)?
Answer: negative

Question: What about the IC50 (CYP2C19) of the same compound?
Answer: > 20000 nM

Question: And the MTD [11]?
Answer: 300 mg/kg

Question: What about the CLint scaled [12] of the same compound?
Answer: 58 mL/min/kg

Question: And the CLint scaled [13]?
Answer: 70 mL/min/kg

Question: And the “loss of huRBC” value [14]?
Answer: did not show a significant drug-dependent loss of huRBC

Question: And the “finding at 100 mg kg^−1” value [15]?
Answer: body weight loss

Question: What about the tolerability [15] of the same compound?
Answer: not tolerated

Question: What about the NOAEL (in vivo; female) of the same compound?
Answer: 50 mg/kg/day

Question: What about the AUC(0-t) (in vivo; female, 50 mg/kg) of the same compound?
Answer: 14800 ng·h/mL

Question: And the Cmax (in vivo; female, 50 mg/kg)?
Answer: 1070 ng/mL

Question: And the NOAEL (in vivo; male)?
Answer: 100 mg/kg/day

Question: What about the AUC(0-t) (in vivo; male, 100 mg/kg) of the same compound?
Answer: 19600 ng·h/mL

Question: And the Cmax (in vivo; male, 100 mg/kg)?
Answer: 1200 ng/mL

Question: And the microsomal CLint (in vitro)?
Answer: 23 µL/min/mg

Question: And the IC50 [16]?
Answer: > 20000 nM

Question: What about the IC50 (CYP3A4) of the same compound?
Answer: > 20000 nM

Question: What about the half-life at 1 µM [17] of the same compound?
Answer: 13 h

Question: What about the “Absorption rate constant Ka” value ([18]; PO 9 mg kg^−1) of the same compound?
Answer: 0.31 h⁻¹

Question: And the clearance ([18]; male, Sprague-Dawley, plasma, other: intravenous and oral, fitted together)?
Answer: 26.7 mL/min/kg

Question: And the IC50 (CYP1A2)?
Answer: > 20000 nM

Question: What about the IC50 (CYP2C9) of the same compound?
Answer: > 20000 nM

Question: What about the clearance [19] of the same compound?
Answer: 5.1 mL/min/kg

Question: What about the “% Substrate Consumed” value ([20]; human liver microsomes with NADPH, 60 minutes) of the same compound?
Answer: 45%

Question: And the “Microsome-Predicted EH” value ([20]; substrate 1 µM)?
Answer: 0.50

Question: And the “Microsome-Predicted EH” value ([20]; substrate 5 µM)?
Answer: 0.48

Question: And the half-life at 1 µM ([20]; human, liver microsomes)?
Answer: 1.13 h

Question: And the half-life at 5 µM ([20]; human, liver microsomes)?
Answer: 1.27 h

Question: What about the microsomal CLint at 1 µM ([20]; human, liver microsomes) of the same compound?
Answer: 25 µL/min/mg
